Measurements from US7285555B2, “6-aryl-7-halo-imidazo[1,2-a]pyrimidines as anticancer agents” (Wyeth Holdings Corporation, priority 2003, dated 2007).

Assays:
S1-M1 cells = assay: MTS cytotoxicity test procedure with S1-M1 cells; format: cell-based, human; conditions: for Ratio: IC50 on S1-M1 cells/IC50 on S1 cells
Excerpt: (§1) Human cancer cell lines, unless otherwise noted, are obtained from the American Type Culture Collection (Rockville, Md.). The following drug-sensitive parental cell lines, and their derived drug-resistant counterparts, are obtained from the originators as listed: (a) S1 (parental line from a subclone of human colon carcinoma line LS174T) and derived S1-M1-3.2 (herein called S1-M1) which expresses the MXR drug transporter protein, are provided by Dr. L. Greenberger, Wyeth Research (Rabindran, S. K., He, H., Singh, M., Brown, E., Collins, K. I., Annable, T., and Greenberger, L. M. Reversal of a novel multidrug resistance mechanism in human colon carcinoma cells by fumitremorgin C. Cancer Res., 58: 5850-5858,1998); (b) parental HL-60 human promyelocytic leukemia line and derived HL-60/ADR, which expresses the MRP1 drug transporter protein, are provided by Dr. M. Center, University of Kansas (McGrath, T., and Center, M. S. Adriamycin resistance in HL60 cells in the absence of detectable P-glycoprotein. Biochem. Biophys. […] J. Biol. Chem., 261: 7762-7770, 1986) via Dr. L. Greenberger, Wyeth Research.
(§2) The MTS assay, which is sold in kit form by Promega (Madison, Wis.; CellTiter 96 AQueous Non-Radioactive Cell Proliferation Assay), is based on the conversion by viable cells, but not by dead cells, of the tetrazolium salt, MTS (3-(4,5-dimethylthiazol-2-yl)-5-(3-carboxymethoxyphenyl)-2-(4-sulphophenyl)-2H-tetrazolium, inner salt), into a water-soluble colored formazan which is detected by spectrophotometry. Compounds are tested at nine concentrations, in order to determine IC50 values. For the test procedure, cells are harvested by trypsinization (or, in the case of non-adherent cells, by simple resuspension), washed, counted and distributed to wells of 96-well flat-bottom microtiter plates at 1000 cells per well in 200 μL of medium. In addition, one row of wells on a separate plate receives cells as above (“time 0” plate). All plates are incubated at 370 in humidified 5% CO2 in air for about 24 hr.
(§3) On day 2, compounds for test are diluted and added to wells. Compounds are dissolved in DMSO at 10 mg/mL. For each compound, nine serial 2-fold dilutions are prepared in DMSO. Ten μL of each dilution in DMSO is transferred to 100 μL of medium, mixed well, and then 5 μL of this dilution is transferred in quadruplicate to wells containing cells. […] Plates are returned to the incubator for three days. At the time of drug addition to the experimental plates, the MTS assay is run on the “time 0” plate.
(§4) After three days of culture with test compounds (day 5 overall), the MTS assay is done on all wells of the experimental plates. The absorbance values of the quadruplicate sample wells are averaged and divided by the average of the “time 0” values. […]

KB-8-5 cells = assay: MTS cytotoxicity test procedure with KB-8-5 cells; format: cell-based, human; conditions: MTS assay
Excerpt: (§5) Human cancer cell lines, unless otherwise noted, are obtained from the American Type Culture Collection (Rockville, Md.). […]
(§6) The MTS assay, which is sold in kit form by Promega (Madison, Wis.; CellTiter 96 AQueous Non-Radioactive Cell Proliferation Assay), is based on the conversion by viable cells, but not by dead cells, of the tetrazolium salt, MTS (3-(4,5-dimethylthiazol-2-yl)-5-(3-carboxymethoxyphenyl)-2-(4-sulphophenyl)-2H-tetrazolium, inner salt), into a water-soluble colored formazan which is detected by spectrophotometry. […] For the test procedure, cells are harvested by trypsinization (or, in the case of non-adherent cells, by simple resuspension), washed, counted and distributed to wells of 96-well flat-bottom microtiter plates at 1000 cells per well in 200 μL of medium. […]
as §4

HL-60/ADR cells = assay: MTS cytotoxicity test procedure with HL-60/ADR cells; format: cell-based, human; conditions: for Ratio: IC50 on HL-60/ADR cells/IC50 on HL-60 cells
Excerpt: as §1, §2, §3
After three days of culture with test compounds (day 5 overall), the MTS assay is done on all wells of the experimental plates. The absorbance values of the quadruplicate sample wells are averaged and divided by the average of the “time 0” values. […] The nine values for each compound are plotted against concentration, and the concentration that produces a relative color yield half way between the maximum and minimum is taken as the IC50 value.
HL-60/ADR cells overexpress the multidrug resistance protein MRP1 which mediates resistance to some chemotherapeutics (Gottesman, M. M., Fojo, T., and Bates, S. E. Multidrug resistance in cancer: role of ATP-dependent transporters. Nature Rev. Cancer, 2: 48-58, 2002). The IC50 values of example 6 of this invention, as well as reference compounds, on HL-60/ADR are compared to values on the sensitive parental HL-60 line.

S1 cells = assay: MTS cytotoxicity test procedure with S1 cells; format: cell-based; conditions: Homo sapiens, MTS assay, means of 2 independent experiments
Excerpt: as §5, §6, §4

KB-V1 cells = assay: MTS cytotoxicity test procedure with KB-V1 cells; format: cell-based, human; conditions: MTS assay
Excerpt: as §1
The MTS assay, which is sold in kit form by Promega (Madison, Wis.; CellTiter 96 AQueous Non-Radioactive Cell Proliferation Assay), is based on the conversion by viable cells, but not by dead cells, of the tetrazolium salt, MTS (3-(4,5-dimethylthiazol-2-yl)-5-(3-carboxymethoxyphenyl)-2-(4-sulphophenyl)-2H-tetrazolium, inner salt), into a water-soluble colored formazan which is detected by spectrophotometry. Compounds are tested at nine concentrations, in order to determine IC50 values. For the test procedure, cells are harvested by trypsinization (or, in the case of non-adherent cells, by simple resuspension), washed, counted and distributed to wells of 96-well flat-bottom microtiter plates at 1000 cells per well in 200 μL of medium. […]
as §4

COLO 205 cells = assay: MTS cytotoxicity test procedure with COLO 205 cells; format: cell-based; conditions: Homo sapiens, 72 h, MTS assay, three days of culture
Method: as §2
On day 2, compounds for test are diluted and added to wells. Compounds are dissolved in DMSO at 10 mg/mL. For each compound, nine serial 2-fold dilutions are prepared in DMSO. Ten μL of each dilution in DMSO is transferred to 100 μL of medium, mixed well, and then 5 μL of this dilution is transferred in quadruplicate to wells containing cells. The final high concentration of each compound is typically 1-5 μM. Plates are returned to the incubator for three days. At the time of drug addition to the experimental plates, the MTS assay is run on the “time 0” plate. This gives the “time 0 MTS value” which is related to the number of viable cells per well at the time of drug addition.
After three days of culture with test compounds (day 5 overall), the MTS assay is done on all wells of the experimental plates. The absorbance values of the quadruplicate sample wells are averaged and divided by the average of the “time 0” values. The average of control wells without drug, divided by the average “time 0” value, gives the maximal relative increase in MTS color yield due to cell growth during the final three days of culture. The average of control wells with high drug concentration, divided by the “time 0” value, gives the minimal relative color yield for cells that were completely killed. The nine values for each compound are plotted against concentration, and the concentration that produces a relative color yield half way between the maximum and minimum is taken as the IC50 value.
COLO 205 is a human colon carcinoma cell line that is used for comparative testing of the examples of this invention and several reference compounds (Table 1). This line is sensitive to paclitaxel and vincristine.

## CN(C)CCCOc1cc(F)c(-c2c(Cl)nc3nccn3c2C2CCCCCC2)c(F)c1 [Example 6, 3-[4-(7-Chloro-5-cycloheptylimidazo[1,2-a]pyrimidin-6-yl)-3,5-difluorophenoxy]-N,N-dimethylpropan-1-amine]
S1-M1 cells; Homo sapiens, MTS assay, S1-M1 cells, means of 2 independent experiments
  IC50: 68 nM
S1-M1 cells
  Ratio: 1.1
S1-M1 cells; listed as example 6
  Ratio: no resistance
KB-8-5 cells; Homo sapiens, KB 8.5 cells, means of 2 independent experiments
  IC50: 63 nM
KB-8-5 cells; IC50 on KB 8.5 cells/IC50 on KB cells
  Ratio 8.5/KB: 1.4
HL-60/ADR cells; Homo sapiens, HL60/ADR, MTS assay, HL-60/ADR cells, means of 2 independent experiments
  IC50: 29 nM
HL-60/ADR cells
  Ratio: 0.55
HL-60/ADR cells; listed as example 6
  Ratio: no resistance
S1 cells
  IC50: 63 nM
KB-V1 cells; Homo sapiens, KB-V1, KB VI cells, means of 2 independent experiments
  IC50: 204 nM
KB-V1 cells; IC50 on KB VI cells/IC50 on KB cells
  Ratio VI/KB: 4.6
COLO 205 cells
  IC50: 45 nM
